Experimental data taken from patent US9278100B2, “Inhibitors of bruton's tyrosine kinase for the treatment of solid tumors” (Pharmacyclics LLC, priority 2008, dated 2016).

What was measured:
mast cell degranulation = assay: Mouse passive cutaneous anaphylaxis model; assay type: in vivo; conditions: increasing doses, single oral dose
Experimental: (FIG. 4) Mice were sensitized with an intradermal injection of monoclonal anti-DNP-IgE in the back. […] After one hour, animals were challenged with an intravenous injection of DNP-BSA and Evans Blue dye. Mast cell degranulation leads to vascular permeability and the distribution of the dye into the skin of the back. The area of extravasation after 1 hour is measured.

normal human B cells = assay: B cell activation after brief exposure and washout (CD69); assay type: cell-based; conditions: 1 hour exposure, washed three times, IgM F(ab')2 stimulation 18 hours
Experimental: B cells were purified from blood from healthy donors by negative selecting using the RosetteSep Human B cell enrichment cocktail. […] After incubation for 1 hour at 37° C., cells were washed three times using an 8-fold dilution in growth media for each wash. Cells were then stimulated with 10 ug/ml of IgM F(ab′)2 for 18 hours at 37° C. Cells were then stained with anti-CD69-PE antibody and analyzed by flow cytometry using standard conditions.

[1] = tested on: Btk expressing B cell lymphoma cell lines; assay: Sensitivity of a panel of nine Btk expressing B cell lymphoma cell lines; assay type: cell-based; conditions: two cell lines with low pERK levels
Experimental: After 72 hours, cell number was measured using Alamar Blue using manufacturer's protocol. A dilution series of untreated cells was run in parallel to verify that the Alamar Blue assay reliably reflected cell number and that growth conditions, were not limiting. […] GI50 values were confirmed in two or more separate experiments for each cell line.
A panel of nine Btk expressing B cell lymphoma cell lines was screened for basal pERK levels.

Ramos = assay: Sensitivity of Ramos cell line; assay type: cell-based
Excerpt: To identify biomarkers that correlate with response to Compound 1, phosphorylation events in the BCR signal transduction pathway were investigated.

MDA-MB-453 xenograft = assay: MDA-MB-453 breast cancer xenograft; assay type: in vivo, nude mice; conditions: 50 mg/kg or 5 mg/kg daily, tumor volume (FIG. 8)
Excerpt: An MDA-MB-453 breast cancer xenograft was implanted under the skin of a nude mouse. […] The volume of the tumor xenograft was monitored daily.

proteinuria = assay: Mouse MRL/lpr model of lupus; assay type: in vivo, MRL/lpr mice; conditions: 3.125 mg/kg, 12.5 mg/kg, and 50 mg/kg orally once per day
[2] = Plasma concentrations in orally dosed rats; assay type: in vivo, Male jugular vein cannulated rats; conditions: rat, 8 mg/kg single dose by oral gavage, in combination
Experimental: Male jugular vein cannulated rats were administered a single dose of all test compounds at 8 mg/kg each, in combination by oral gavage. Dose volumes were adjusted based on body weight data collected immediately prior to dosing. Blood samples were collected at 0.0833 (5 minutes), 0.333 (20 minutes), 1, 3, 6, 9, and 24 hours post-dosing from orally dosed rats. The samples were collected into plasma separator Microtainer tubes with anticoagulant (lithium heparin). Plasma samples were prepared by centrifugation (5 min at 5000×g), and at least 100 μL were transferred to storage tubes and stored frozen at −80° C. Plasma samples were thawed and 75 uL aliquots were transferred to centrifuge tubes to which 10 μL aliquots of internal standard solution (1 μg/mL) were added. The samples were not diluted with blank plasma prior to further processing. Soluble proteins were precipitated by the addition of 200 μL of acetonitrile, followed by centrifugation (20 min at 16,000×g). The samples were evaporated to dryness and reconstituted in 200 μL of water containing 0.2% formic acid and 10% methanol. All samples were loaded onto an autosampler maintained at 6° C. and evaluated for concentrations of test compounds using LC-MS/MS.

[3] = molecular target: Tec family kinases, including Btk, and Src family kinases; assay: In vitro profiling against a panel of greater than 100 kinases; assay type: biochemical
Excerpt: By way of example only and in some embodiments, the observed potency, selectivity, and cell permeability of compounds such as Compound 2 are appropriate to incorporate these molecules into a Kinase-targeted, activity based probe that allows direct visualization of Kinase activity in intact cells. […] Without limiting the scope of the compositions and methods described herein, it is postulated that the structural basis for the selectivity is covalent modification of a non-catalytic cysteine residue (Cys 481 in Btk) that is conserved in the ATP binding pocket of the Tec family and several other kinases.

BTK = BTK (Homo sapiens (Human), UniProt Q06187); assay: HotSpot kinase assay, BTK; assay type: biochemical; conditions: Table 2; 1 uM ATP, one hour incubation with inhibitor
Sequence of BTK (Q06187 whole entry): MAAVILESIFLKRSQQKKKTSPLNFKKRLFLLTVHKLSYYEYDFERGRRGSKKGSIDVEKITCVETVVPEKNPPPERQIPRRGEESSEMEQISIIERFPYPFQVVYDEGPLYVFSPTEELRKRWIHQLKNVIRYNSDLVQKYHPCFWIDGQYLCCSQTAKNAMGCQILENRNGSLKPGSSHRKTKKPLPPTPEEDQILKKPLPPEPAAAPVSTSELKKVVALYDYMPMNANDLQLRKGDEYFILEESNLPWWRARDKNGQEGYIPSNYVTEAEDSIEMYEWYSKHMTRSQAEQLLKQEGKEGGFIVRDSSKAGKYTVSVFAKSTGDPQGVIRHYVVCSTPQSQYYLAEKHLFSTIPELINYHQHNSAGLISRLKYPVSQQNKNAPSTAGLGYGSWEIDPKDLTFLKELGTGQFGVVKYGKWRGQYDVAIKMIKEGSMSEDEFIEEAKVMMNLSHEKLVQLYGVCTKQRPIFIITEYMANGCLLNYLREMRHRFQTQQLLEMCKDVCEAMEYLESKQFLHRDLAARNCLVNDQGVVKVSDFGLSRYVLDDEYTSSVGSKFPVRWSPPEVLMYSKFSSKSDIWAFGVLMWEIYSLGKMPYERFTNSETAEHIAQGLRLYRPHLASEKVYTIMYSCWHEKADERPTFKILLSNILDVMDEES
Experimental: For enzyme inhibition assays, compounds were tested in range often concentrations from 10 uM to 0.0005 uM using purified enzymes and the Hotspot kinase assay. Reaction conditions were 1 uM ATP, one hour incubation with inhibitor, and kinase activity detected using 33-ATP phosphorylation of an appropriately selected peptide substrate.

HER4 = HER4 (Homo sapiens (Human), UniProt Q15303); assay: HotSpot kinase assay, HER4; assay type: biochemical; conditions: Table 1, first of two rows printed HER4; 1 uM ATP
Sequence of HER4 (Q15303 other isoform, or with tags, fused parts or gaps): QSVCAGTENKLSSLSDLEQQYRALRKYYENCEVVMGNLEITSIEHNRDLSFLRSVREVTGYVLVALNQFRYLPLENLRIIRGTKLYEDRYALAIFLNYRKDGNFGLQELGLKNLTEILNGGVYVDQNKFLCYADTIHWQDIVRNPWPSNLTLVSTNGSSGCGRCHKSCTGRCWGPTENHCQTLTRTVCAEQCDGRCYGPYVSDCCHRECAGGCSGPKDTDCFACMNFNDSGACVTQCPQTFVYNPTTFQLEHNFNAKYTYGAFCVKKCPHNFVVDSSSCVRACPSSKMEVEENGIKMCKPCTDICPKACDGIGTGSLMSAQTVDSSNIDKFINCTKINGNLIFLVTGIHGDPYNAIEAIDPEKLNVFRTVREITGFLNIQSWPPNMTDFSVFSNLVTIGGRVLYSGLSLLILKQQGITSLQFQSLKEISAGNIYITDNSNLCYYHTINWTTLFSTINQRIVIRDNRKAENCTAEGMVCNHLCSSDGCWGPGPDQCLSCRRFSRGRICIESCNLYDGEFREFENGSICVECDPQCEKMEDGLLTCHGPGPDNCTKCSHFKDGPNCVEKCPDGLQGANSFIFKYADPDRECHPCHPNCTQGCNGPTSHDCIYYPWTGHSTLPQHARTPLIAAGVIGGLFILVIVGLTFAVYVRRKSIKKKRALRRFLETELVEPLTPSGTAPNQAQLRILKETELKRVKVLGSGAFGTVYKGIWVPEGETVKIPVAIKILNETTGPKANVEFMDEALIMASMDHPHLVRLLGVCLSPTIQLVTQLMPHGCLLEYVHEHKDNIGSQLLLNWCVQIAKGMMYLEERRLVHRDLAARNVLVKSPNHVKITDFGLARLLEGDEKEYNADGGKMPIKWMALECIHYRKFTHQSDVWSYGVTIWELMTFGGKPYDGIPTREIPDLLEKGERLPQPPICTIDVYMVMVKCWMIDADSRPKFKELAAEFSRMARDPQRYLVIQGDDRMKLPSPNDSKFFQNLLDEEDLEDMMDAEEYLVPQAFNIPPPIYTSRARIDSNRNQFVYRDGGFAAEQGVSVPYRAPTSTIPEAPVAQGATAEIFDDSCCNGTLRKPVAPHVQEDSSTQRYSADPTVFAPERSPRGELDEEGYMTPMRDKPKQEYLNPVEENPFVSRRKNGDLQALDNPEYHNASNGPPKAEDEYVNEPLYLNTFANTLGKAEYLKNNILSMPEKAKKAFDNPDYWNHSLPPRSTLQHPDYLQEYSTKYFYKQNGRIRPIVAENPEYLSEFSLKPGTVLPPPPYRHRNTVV

## C=CC(=O)N1CCC[C@@H](n2nc(-c3ccc(Oc4ccccc4)cc3)c3c(N)ncnc32)C1 [Compound 1]
Mast cell degranulation
  amount of Evans Blue release: significantly decrease the amount of Evans Blue release
Normal human B cells
  inhibition of B cell activation: sufficient to inhibit B cell activation
[1]
  sensitivity to compound: resistant
Ramos
  sensitivity to compound: resistant
MDA-MB-453 xenograft
  efficacy in xenograft: efficacy
proteinuria
  proteinuria: significantly reduced proteinuria
[2]
  in vivo half-life: short half-life

## CN(C)C/C=C/C(=O)N1CCC[C@@H](n2nc(-c3ccc(Oc4ccccc4)cc3)c3c(N)ncnc32)C1 [Compound 2]
[3]
  kinase panel profile: highly potent and selective inhibitor of Tec family kinases

## CN(C/C=C/C(=O)N1CCCC(n2nc(-c3ccc(Oc4ccccc4)cc3)c3c(N)ncnc32)C1)CCO (centres unmarked) [Compound 3]
BTK
  IC50: 21 nM

## C=CC(=O)N[C@H]1CC[C@@H](n2nc(-c3ccc(Oc4ccccc4)cc3)c3c(N)ncnc32)CC1 [Compound 9]
HER4
  IC50: 1540 nM

## CN(C)C/C=C/C(=O)N1CCC[C@H]1Cn1nc(-c2ccc(Oc3ccccc3)cc2)c2c(N)ncnc21 [Compound 12, (E)-1-((S)-2-((4-amino-3-(4-phenoxyphenyl)-1H-pyrazolo[3,4-d]pyrimidin-1-yl)methyl)pyrrolidin-1-yl)-4-(dimethylamino)but-2-en-1-one]
[2]
  in vivo half-life: short half-life
